According to PubChem BioAssay (NCI):
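1) Cells in 96-well plates. 2) Compound, 48 h, 5 concentrations. 3) Linear interpolation between surrounding doses. 4) Unreached endpoint = highest concentration. GI50 is the concentration that inhibits growth by half. TGI: concentration producing complete growth inhibition.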

Experiments:
Test in all cases: NCI anticancer screen, dose series, 48 h
HL-60(TB) leukemia = system: HL-60(TB) leukemia
OVCAR-8 ovarian = system: OVCAR-8 ovarian
SF-539 CNS = system: SF-539 CNS
SW-620 colon = system: SW-620 colon
HT29 colon = system: HT29 colon
COLO 205 colon = system: COLO 205 colon
EKVX NSCLC = system: EKVX NSCLC
A549 NSCLC = system: A549 NSCLC
HOP-62 NSCLC = system: HOP-62 NSCLC
U251 CNS = system: U251 CNS

Row | Compound | GI50 (HL-60(TB) leukemia) [µM] | TGI (HL-60(TB) leukemia) [µM] | GI50 (OVCAR-8 ovarian) [µM] | TGI (OVCAR-8 ovarian) [µM] | GI50 (SF-539 CNS) [µM] | TGI (SF-539 CNS) [µM] | GI50 (SW-620 colon) [µM] | TGI (SW-620 colon) [µM] | GI50 (HT29 colon) [µM] | TGI (HT29 colon) [µM] | GI50 (COLO 205 colon) [µM] | TGI (COLO 205 colon) [µM] | GI50 (EKVX NSCLC) [µM] | TGI (EKVX NSCLC) [µM] | GI50 (A549 NSCLC) [µM] | TGI (A549 NSCLC) [µM] | GI50 (HOP-62 NSCLC) [µM] | TGI (HOP-62 NSCLC) [µM] | GI50 (U251 CNS) [µM] | TGI (U251 CNS) [µM]
1 | CC1=C(C(=O)Nc2ccc(F)c(Cl)c2)C(c2ccc(Cl)cc2)NC(=O)N1 (centres undefined) | 0.083 | 1.87 | 18.4 | 36.8 | 14 | 29.7 | 24.8 | 66 | 14.3 | 27.8 | 37.5 | > 100 | 18.5 | 49.9 | 20.1 | 46.3 | 15.5 | 30.8 | 16.7 | 33.2
2 | O=C(N/C(=C\c1cc(Cl)ccc1Cl)c1nc2[nH]c(=S)[nH]c(=O)c2[nH]1)c1ccccc1 |  | 36.3 |  | > 71.8 |  | > 76.7 |  | 36.5 |  | 39.6 |  | > 100 |  | > 79.6 |  | > 100 |  | > 100 |  | > 76.1
3 | CSc1ccc(/C=C2\CN(C)C/C(=C\c3ccc(SC)cc3)C2=O)cc1 |  | > 100 |  | 39.6 |  | 78.9 |  | > 100 |  | 67 |  | 61.6 |  | > 100 |  | > 100 |  | > 100 |  | 33.1
4 | CCc1ccc2c(c1)C(=O)c1c-2n(CCCBr)c(=O)c2cc([N+](=O)[O-])ccc12 | > 50 | > 50 | > 50 | > 50 | 28.4 | > 50 | > 50 | > 50 | > 50 | > 50 | > 50 | > 50 | > 50 | > 50 | > 50 | > 50 | 21.3 | > 50 | 26 | > 50
5 | CC(C)c1ccc(C(C)C(=O)N(CC2=C(C(C)c3ccccn3)c3ccccc3C2)C(C)C)cc1 (centres undefined) | 2.15 | 5.44 | 3.82 | > 100 | 5.62 | 26.7 | 3.18 | 15.8 | 1.6 | 3.77 | 1.75 | 3.23 | 1.72 | 8.31 | 3.85 | > 100 | 5.26 | > 100 | 2.85 | 13.6
6 | CCOC(=O)c1ncn2c1[nH]c(=S)c1ccccc12 |  | > 100 |  | > 100 |  | > 100 |  | 62 |  | > 100 |  | > 100 |  | > 100 |  | > 100 |  | > 100 |  | > 100
7 | CSCCCN(CCCSC)CCCSC |  | 50.7 |  | > 100 |  | > 100 |  | > 100 |  | > 100 |  | > 100 |  | > 100 |  | > 100 |  | > 100 |  | > 100
8 | Clc1cccc(Cc2cn3cc(-c4ccccc4)nc3s2)c1Cl | > 100 | > 100 | 23.5 | > 100 | 43.3 | > 100 | > 100 | > 100 | > 100 | > 100 | > 100 | > 100 |  |  | 27.2 | > 100 | 3.9 | 47.7 | 25.5 | > 100
9 | N#CC(C#N)=c1ccc(=C2NCC3CCCN23)cc1 (centres undefined) |  | > 100 |  | > 100 |  | > 100 |  | > 100 |  | > 100 |  | > 100 |  |  |  | > 100 |  | > 100 |  | > 100
10 | COC(=O)[C@@]12C3=NO[C@]1(C(=O)OC)C(O[Si](C)(C)C(C)(C)C)[C@H]1OC(C)(C)O[C@H]1[C@@H]2C(OCc1ccccc1)CC3 (some centres undefined) |  | > 100 |  | > 100 |  | > 100 |  | > 100 |  | > 100 |  | > 100 |  | > 100 |  | > 100 |  |  |  | > 100
11 | O=[S@@]1Nc2ccc(Br)cc2S1 |  | 65.2 |  |  |  | > 100 |  | > 100 |  | > 100 |  |  |  | > 100 |  | > 100 |  |  |  | > 100
12 | CN(CC(=O)O)S(=O)(=O)c1ccc2ccccc2c1 |  | > 100 |  | > 100 |  | > 100 |  | > 100 |  | > 100 |  | > 100 |  | > 100 |  | > 100 |  |  |  | > 100
13 | CC(C)=CCCc1c(C)ccc2c1C(=O)C(=O)C(C(C)C)=C2 |  | 5.03 |  | 7 |  | 8.84 |  | 7.05 |  | > 22 |  | > 22 |  | > 22 |  | > 22 |  |  |  | > 22
14 | CCN(CC)CC(C(=O)Nc1c(C)cccc1C)/C(C)=N\NC(=O)C[N+](C)(C)C (centres undefined) |  | > 100 |  | > 100 |  | > 100 |  | > 100 |  | > 100 |  | > 100 |  |  |  | > 100 |  | > 100 |  | > 100
15 | CC(=O)N1[C@H](C(=O)O)CS[C@H]1c1ccncc1 |  | > 100 |  | > 100 |  | > 100 |  | > 100 |  | > 100 |  | > 100 |  | > 100 |  | > 100 |  | > 100 |  | 
16 | CCOC(=O)Nc1nc2ccc(OCC)cc2s1 | 7.56 | > 100 | 47.7 | > 100 | 20.2 | > 100 | 4.25 | > 100 | 3.98 | > 100 | 10.4 | > 100 |  |  | 7.2 | > 100 | 39.4 | > 100 | 25.5 | > 100
17 | CNC(=O)c1cc(Oc2ccc3nc(NC(=O)Nc4ccc(Cl)c(C(F)(F)F)c4)sc3c2)ccn1 | > 100 | > 100 | 2.34 | 5.25 |  |  | 2.99 | > 100 |  |  |  |  |  |  |  |  | 1.94 | 4.74 |  | 
18 | CCNC1C2(CCCCC2)NC(=O)C12CCCCC2 (centres undefined) |  | > 100 |  | > 100 |  | > 100 |  | > 100 |  | > 100 |  |  |  | > 100 |  | > 100 |  | > 100 |  | > 100
19 | COc1cc2cnc3c4cc(OC(C)C)c(OC)cc4ccc3c2cc1OC |  |  |  | > 100 |  | > 100 |  | > 100 |  | > 100 |  | > 100 |  | > 100 |  | > 100 |  | > 100 |  | > 100
20 | Nc1cc2nc3ccccc3sc-2cc1=O | 2.07 | 5.78 | 3.17 | 13.8 | 2.01 | 4.26 | 2.95 | 10.4 | 2.92 | 6.86 | 2.16 | 4.61 |  |  | 2.06 | 4.82 | 2.51 | 5.71 | 3.63 | 15.1
21 | CCOC(=O)C1=C(C)CC2C(=O)OC(=O)C2C1(C)C (centres undefined) |  | > 100 |  | > 100 |  | > 100 |  | > 100 |  | > 100 |  | > 100 |  | > 100 |  | > 100 |  |  |  | > 100
22 | Nc1ccc(C(=O)N/C(=C\c2ccc3c(c2)OCO3)c2nc3[nH]c(=S)[nH]c(=O)c3[nH]2)cc1 |  |  |  | > 100 |  | > 100 |  | > 100 |  | > 100 |  | > 100 |  | > 100 |  | > 100 |  |  |  | > 100
23 | Oc1ccc(Cl)cc1-c1cc(-c2ccccc2Cl)[nH]n1 | 4.22 | > 100 | 7.13 | > 100 |  |  | 77.2 | > 100 | 15.2 | > 100 | 27.3 | > 100 |  |  | 4.74 | > 100 | 19.3 | > 100 |  | 
24 | CC1=C(C(=O)Nc2ccccc2C)C(c2ccco2)C(C(=O)Nc2ccccc2C)=C(C)N1C |  | > 100 |  | > 100 |  | > 100 |  | > 100 |  | > 100 |  |  |  | > 100 |  | > 100 |  | > 100 |  | > 100
25 | CCOC(=O)C(Sc1ccccc1)c1c(OC)cc(=O)oc1/C=[N+](/[O-])c1ccc(N(C)C)cc1 (centres undefined) |  |  |  | 44.2 |  | 56.9 |  | 32.2 |  | 31.4 |  | 45.4 |  | > 100 |  | > 100 |  | > 100 |  | 60.7
26 | COc1ccc(-c2cc(=O)c3ccc(O)cc3o2)c(OC)c1OC |  | > 100 |  |  |  | > 100 |  | > 100 |  | > 100 |  | > 100 |  | > 100 |  | > 100 |  | > 100 |  | 
27 | COc1cccc(NC(=O)CC(=O)n2nc(C)c(N=Nc3ccccc3)c2C)c1 |  |  |  | > 100 |  | > 100 |  | > 100 |  | > 100 |  | > 100 |  | > 100 |  | > 100 |  | > 100 |  | > 100
28 | c1cc2c(cc1NC1=NCCO1)CCC2 |  | > 10 |  | > 10 |  | > 10 |  | > 10 |  | > 10 |  | > 10 |  | > 10 |  | > 10 |  | > 10 |  | 
29 | COc1ccc(C2=CSc3cc(Cl)c(C)cc3S(=O)(=O)N2C(C)=O)cc1 | 17.2 | 43.7 | 33.8 | > 100 | 33 | 78.6 | 38.7 | > 100 |  |  | 38.5 | > 100 | 38.2 | > 100 | 27.4 | 65 | 47.2 | > 100 | 21.2 | 55.8
